# Experiment: clinical trial: lipoprotein profiles in blood serum of patients treated with a PDE4 inhibitor (ultracentrifugation density separation)
# Format: in vivo, human
# Description: In a clinical trial, five patients were treated by daily doses of a PDE4 inhibitor. As an exemplifying and representative compound, roflumilast was used as the PDE4 inhibitor. Lipoprotein profiles were measured at start of the therapy (time T0), four weeks after start (T1) and eight weeks after start (T2). Treatment was further monitored thereafter. In an embodiment, a first unit dose ([…]) was administered orally every second day for a period of four weeks, and subsequently the dose was increased to a unit of […] per day until a time of 8 weeks.
# For analysing and measuring the lipoprotein profiles and thus the relative concentrations and levels of lipoprotein fractions and the cholesterol and triglyceride amounts per lipoprotein, 10 ml venous blood was drawn at the indicated time Points. Lipoprotein profiles and fractions were determined using density separation by means of ultra-centrifugation and subsequent determination of the lipoprotein components (Baumstark et al., Biochem. Biophys. Acta—Protein Structure and Molecular Enzymology 1037, 48-57 (1990); Frey et al., Eur. J. Appl, Physiol. 60, 441-444 (1990)). The components and parameters determined include cholesterol and triglyceride proportions of HDL and LDL, and of sub-fractions LDL-1 to LDL-6, and HDL-2a-2b and -3. Statistical analysis of the results was carried out by SPSS 23.0.
# [1] = five patients, oral roflumilast, T1 (4 weeks) and T2 (8 weeks) compared to T0, blood serum
# [2] = five patients, oral roflumilast, blood serum
smiles,measurement,setting,value
"O=C(Nc1c(Cl)cncc1Cl)c1ccc(OC(F)F)c(OCC2CC2)c1 [roflumilast, 3-cyclopropylmethoxy-4-difluoromethoxy-N-(3,5-dichloropyrid-4-yl)-benzamide]",persistence of the reduction of LDL-C,after 12 weeks (not shown),maintained over longer time periods
same,persistence of the reduction of LDL-TG,after 12 weeks (not shown),maintained over longer time periods
same,change of LDL-TG,[1],substantially reduced
same,reduction of LDL-C,[1],approximately 30 mg/dl
same,change of HDL-C,[2],Slight reductions
same,change of HDL-TG,[2],Slight reductions
